Here are results for 4 compounds from patent US4021566A, “2,5-Dimethyl-1-pyrrole-lower-alkanecarboxamides” (Sterling Drug Inc., priority 1975, dated 1977).

Molecules are shown by their SMILES. Several values for one entry are separate records, joined by “and”; a condition that tells them apart may be missing. Equal values may be shown once.

The subject of one test is gastric secretion. Kind of test: Anti-secretory activity, pylorus ligation method of Shay et al. In kind it is in vivo, male albino Wistar rats. Particulars: rat; for Anti-Secretory % Inhibition of Free Acid / Anti-Secretory pH: oral; for Anti-Secretory % Inhibition of Free Acid: vs control; for Anti-Secretory pH: pH of gastric fluid. As to the method:
In standard biological test procedures, described generally by Shay et al., Gastroenterology 5, 43 (1945) and 26, 906 (1954) and by Selmici et al., Acta Physiol. Acad. Sci. Hung. […] Anti-secretory activity was determined in male albino Wistar rats weighing approximately 180 g. using the method described by Shay et al. which is described as follows: the rats were divided into medicated groups of at least five rats each and control groups of ten rats. The rats were medicated orally once daily for two days prior to stomach ligation and once again immediately following ligation. All drugs were administered as the free base, and control rats received only the vehicle of medication. The rats were housed individually in wire cages, food was withdrawn forty-eight hours prior to surgery, and water was withdrawn at the time of surgery. Laparotomy was performed under light ether anesthesia, the pyloric-duodenal junction was ligated, and the wound was closed with metal clips and sprayed with a protective surgical dressing. Five hours following surgery, the rats were sacrificed, the stomach was removed, and the gastric juice collected. The gastric fluid was centrifuged, and total volume, color, and volume of solids were recorded. The pH of the gastric fluid was then determined on a Beckamn pH meter, and the "free" and "total" hydrochloric acid content of each gastric sample was determined by titrating an aliquot of the gastric fluid (diluted to approximately 10 ml. with distilled water) by titrating with 0.1N sodium hydroxide against Toepfers reagent and phenolphthalein, respectively. By determining the milliequivalents of hydrochloric acid per milliliter of gastric juice and knowing the total volume of gastric juice secreted by each rat, the total acid output can be calculated. Since pH is a function of "free" acid, the activity of the test compounds can be evaluated by comparison of the mean "free" acid of medicated rats with the mean "free" acid of the controls, and the activity can thus be expressed in terms of percent inhibition of free acid.

Test [1] relates to reserpine-induced stomach ulceration. Kind of test: Anti-ulcer activity, reserpine-induced anti-ulcer test method of Selmici et al. The format is in vivo, male, albino, Sprague-Dawley rats. Particulars: rat, oral, reserpine 5.0 mg/kg i.m., vs control. As to the method:
The anti-ulcer activity of the compounds was determined using the reserpine-induced anti-ulcer test method, described by Selmici et al., which is described briefly as follows: male, albino, Sprague-Dawley rats, weighing approximately 300 g., were divided into medicated and control groups of at least five rats each, and one positive control group of five rats medicated with a known drug at the active dose was run with each experiment. The rats were medicated forty-eight, twenty-four, and one hour before receiving an injection of reserpine. All test drugs were administered orally in terms of base, and the control rats received only the vehicle of medication. The rats were housed individually in wire cages, and food was withdrawn twenty-four hours prior to injection of reserpine, while water was allowed ad libitum. One hour following the third medication, 5.0 mg. of reserpine per kilogram of body weight in a concentration of 5 mg./ml. was injected intramuscularly in each rat. Eighteen hours after injection the rats were sacrificed, their stomachs removed, opened along the greater curvature, rinsed in warm saline, and pinned to a cork board for gross observation. The stomachs were examined for the number and size of ulcerations located in the glandular portion of the stomach with the aid of a one millimeter grid ocular with a 10x dissecting microscope. The degree of ulceration was arbitrarily graded according to the number and size of the ulcers as follows:
The points were added together and divided by the number of rats in each group to give an ulcer score, and the difference in the mean scores of the medicated and control group was expressed as percent inhibition of ulceration. Alternatively, the results can be expressed as a ratio of the total number of rats with any degree of ulceration (as the numerator) to the total number of rats in the test group (as the denominator).

Regarding `Cc1c(C)c(C)n(CC(N)=O)c1C` [Example 1, 2,3,4,5-tetramethyl-1-pyrroleacetamide], the “Anti-Secretory % Inhibition of Free Acid” value amounted to 44% in the test on gastric secretion (dose 12.5 (mg/kg)), 49% in the test on gastric secretion (dose 25 (mg/kg)), 83% with gastric secretion (dose 50 (mg/kg)) and 91% in the test with gastric secretion (dose 100 (mg/kg)). Moreover, the “Anti-Secretory pH” value was determined as 1.3 in the test with gastric secretion (dose 12.5 (unit not in table; mg/kg)), 1.5 with gastric secretion (dose 25 (mg/kg)), 2.9 with gastric secretion (dose 50 (mg/kg)) and 3.6 with gastric secretion (dose 100 (mg/kg)). Moreover, the “Anti-Ulcer % Inhibition” value in test [1] (dose 25 (mg/kg)) came out at 61%; in test [1] (dose 50 (mg/kg)) it was 87%; in test [1] (dose 100 (mg/kg)), 94%.
With `Cc1ccc(C)n1CC(N)=O` [Example 2, 2,5-dimethyl-1-pyrroleacetamide], the “Anti-Secretory pH” value in the test on gastric secretion (dose 50 (mg/kg)) is 1.7; with gastric secretion (dose 100 (mg/kg)), 2.7 and 2.6; in the test on gastric secretion (dose 200 (mg/kg)), 4.6. The “Anti-Secretory % Inhibition of Free Acid” value in the test on gastric secretion (dose 50 (mg/kg)) is 21%; with gastric secretion (dose 100 (mg/kg)) it was 78% and 63%; in the test on gastric secretion (dose 200 (mg/kg)), 100%. Also, the “Anti-Ulcer % Inhibition” value in test [1] (dose 50 (mg/kg)) stood at 40%.
For `Cc1c(C)c(C)n(CCC(N)=O)c1C` [Example 3, β-(2,3,4,5-tetramethyl-1-pyrrole)propionamide], in the test on gastric secretion (dose 100 (mg/kg)), the “Anti-Secretory pH” value is reported as 2.4 and the “Anti-Secretory % Inhibition of Free Acid” value worked out at 60%. In addition, in test [1] (dose 25 (mg/kg)), the “Anti-Ulcer % Inhibition” value stood at 36%. In test [1] (dose 50 (mg/kg)), the “Anti-Ulcer % Inhibition” value came to 66%.
On to `NC(=O)Cn1cccc1` [Reference, pyrrole-1-acetamide, reference compound], for which, in the test with gastric secretion (in vivo), the “anti-secretory activity (in words)” value is “has anti-secretory activity”. In addition, in the test with gastric secretion (dose 100 (mg/kg)), the “Anti-Secretory pH” value is reported as 1.7 and the “Anti-Secretory % Inhibition of Free Acid” value is listed as 46%.
